Where two headings read alike, the source gives them in different places.
Tests used:
[1] = system: A549 human non-small cell lung cancer cell line; experiment: 72-hour (long term) cell killing effects; format: cell-based; settings: CCK8
Procedure: Cell lines and Culture: Cell line A549 was cultured in DMEM medium (Gibco, Life Technologies, China). 10% HI fetal bovine serum was purchased from Gibco, Life Technologies, USA and 1% penicillin/streptomycin was obtained from Hyclone.
(§1) Approx. 2,000 cells in 50 μL complete medium were plated on each well of a 96-well plate and incubated at 37° C., 5% CO2 overnight. Drugs at concentrations of 0.02 μM to 10 μM were dissolved in 0.1% DMSO, followed by addition into each well. After incubation for 72 hours, 10 μL CCK8 (Dojindo) was added into each well, followed by incubation at 37° C. for another 4 hours. The OD values were obtained by TECAN Microplate Reader at 450 nm.
Processing of Compounds: For in vitro tests, compounds were directly dissolved in 10 mM DMSO and stored at −20° C.

786-O cell or A549 cell = experiment: Cell morphology and survival rate after 4 to 8 hours incubation; format: cell-based, human; settings: for cell survival: 786-O cell or A549 cell, incubated for 8 hours; for cell morphology: cancer cells incubated for 4 hours
[2] = Pharmacokinetics and organ distribution after intravenous administration of Sunitinib, Compound 1 and Compound 2 in mice; set-up: AUCiv: unit not given beside the values; settings: mouse, in vivo
From the text: Relative Exposure(RE)=AUCi sample/AUCi control
AUCi—area under curve for the i^th organ or tissue; RE>1 indicates targeting at the organ or tissue, with larger RE indicating greater targeting; RE≦1 indicates non-targeting.
RTE refers to the multiple of the percent of drug content in a tissue of sample group with respect to total drug amount in the body vs. that in a control group. Positive RTE values indicate enhanced targeting effects and the more positive the more the multiple of enhancement and the more the enhanced targeting. In contrast, negative RTE values indicate reduced targeting effects. Value 0 indicate no influence to the tissue.
0.083 h, 0.25 h, 0.5 h, 1 h, 3 h, 8 h post injection, blood was taken by eyeball removal and the mice were sacrificed by cervical dislocation. Tissues were perfused with normal saline and livers and kidneys were removed and cleaned with normal saline. The blood samples were centrifuged to obtain supernatants and stored at −20° C. 50 μL plasma sample and 50 μL internal standard (clozapine) working solution was vortexed with 300 μL MeOH and then centrifuged. 150 μL upper organic phase was obtained and mixed with 150 μL water, followed by centrifugation. 10 μL supernatant was sampled for analysis. The tissue samples were weighted and mixed homogeneously with 10 times weight of water. Since the samples were 10-time diluted, the concentration of the tissue would be 10 times the results determined. The heart tissue was 5-time diluted. 100 μL homogenate was mixed with 50 μL internal standard (clozapine) working solution and 300 μL MeOH and then centrifuged. 150 μL upper organic phase was obtained and mixed with 150 μL water, followed by centrifugation. 10 μL supernatant was sampled for analysis.

[3] = system: A549; NCI-H460; 786-O; Caki-1; HT-29; MCF-7; experiment: 72 hour cytotoxicity (CCK8) in different cell lines; format: cell-based, human
From the text: A549 human non-small cell lung cancer cell line, NCI-H460 human non-small cell lung cancer cell line, 786-O human renal cell line, Caki-1 human renal cell line, HT-29 human colon cancer cell line, MDA-MB-231 human breast cancer cell line, and MCF-7 human breast cancer cell line was purchased from Chinese Academy of Science Shanghai Branch. PLC/PRF-5 human hepatoma cell line and Hepal-6 mouse hepatoma cell line were obtained from Institute of Biochemistry and Cell Biology, SIBS, CAS (SIBCB). Cell lines A549, Caki-1, HT-29, MDA-MB-231, MCF-7, PLC/PRF-5 and Hepal-6 were cultured in DMEM medium (Gibco, Life Technologies, China) and cell lines NCI-H460 and 786-O were cultured in RPMI-1640 medium (Gibco, Life Technologies, China). 10% HI fetal bovine serum was purchased from Gibco, Life Technologies, USA and 1% penicillin/streptomycin was obtained from Hyclone.
as §1, with “0.02” for “0.02 μM”
(§2) For in vitro tests, compounds were directly dissolved in 10 mM DMSO and stored at −20° C. For in vivo tests, the compounds were dissolved in DMSO and neutralized by Tween 80 (DMSO:Tween=1:1) and further neutralized by PBS (pH 7.4). The final concentrations of DMSO and Tween-80 were 5%.

pSTAT3 = experiment: Effects on STAT3 phosphorylation in A549 cell line; format: cell-based, human; settings: 10 μM
Procedure: as §2

in vivo = format: in vivo; set-up: AUCpo: unit not given beside the values; settings: mouse, in vivo
From the text: Animal experiments: 24 mice in each group were divided into 8 sub-groups.

[4] = Acute toxicity test: maximum tolerance dosage (MTD) determination; format: in vivo, BALB/c mice
Procedure: Methods: Femal BALB/c mice, 4-5 weeks old, weighted greater than 17 g, were used for the test. […] The body weights and conditions of the mice were recorded.
In contrast, the body weights of mice in compound 2 group increased 6.0% in average.
To further explore the toxicity of the compounds, blood was collected after 14-day treatment of drugs and critical biochemical index were analyzed.

cancer cell xenograft = experiment: Pharmacodynamic tests on mice xenograft transplantation model; format: in vivo; settings: intraperitoneally injected 1.5, 7.5, 30 mg/kg once a day for 2 weeks
Procedure: as §2
5×10^6 cancer cells were subcutaneously injected to the right side of mouse. Drug was intraperitoneally injected at dosages of 1.5 mg/kg, 7.5 mg/kg, 30 mg/kg to the mice, once a day, for 2 weeks when average tumor size reached 75 to 150 mm^3. The size of the tumor was measured every other day. […] Compound 1 had less efficacy.
We then performed the test through oral route. 5×10^6 cancer cells were subcutaneously injected to the right side of mouse. Drug was orally administered at dosages of 5 mg/kg, 15 mg/kg, 45 mg/kg to the mice, once a day, for 2 weeks when average tumor size reached 75 to 150 mm^3. The size of the tumor was measured every other day.

[5] = Stability of compounds 1 and 2 in MeOH stock solution and with biomass; format: physicochemical
From the text: No prodrug was detected in organs except for spleen during processing. […] The prodrugs may be converted to Sunitinib or other metabolite during processing or in vivo.

[6] = blood after 14-day treatment, 200 mg/kg
[7] = oral once a day for 14 days, 175 mg/kg
[8] = repeated test, oral once a day, 200 mg/kg

Which IC50 [1] does the source give for `CCN(CC)CCNC(=O)c1c(C)[nH]c(/C=C2\C(=O)N(COC(=O)N(C)C)c3ccc(F)cc32)c1C` [Compound 6, N-[2-(diethylamino)ethyl]-5-[(5-fluoro-2-oxo-1-(N,N-dimethylaminocarboxymethyl)-2,3-indolin-3-ylmethylene)]-2,4-dimethyl-1H-pyrrolidine-3-carboxamide] here?
The IC50 was 8.46 µM.

With `CCN(CC)CCNC(=O)c1c(C)[nH]c(/C=C2\C(=O)N(COC(C)=O)c3ccc(F)cc32)c1C` [Compound 10] as the molecule, how does the IC50 [1] read?
The IC50 was 7.46 µM.

With `CCN(CC)CCNC(=O)c1c(C)[nH]c(/C=C2\C(=O)N(COC(=O)C3CC3)c3ccc(F)cc32)c1C` [Compound 11] as the molecule, how does the IC50 [1] read?
Its IC50 is 2.56 µM.

For `CCOC(=O)OCN1C(=O)/C(=C\c2[nH]c(C)c(C(=O)NCCN(CC)CC)c2C)c2cc(F)ccc21` [Compound 8], which IC50 [1] is on record?
The IC50 was 1.11 µM.

For `CCN(CC)CCNC(=O)c1c(C)[nH]c(/C=C2\C(=O)N(COC(=O)C3CCCCC3)c3ccc(F)cc32)c1C` [Compound 9, N-[2-(diethylamino)ethyl]-5-[(5-fluoro-2-oxo-1-(cyclohexylcarboxymethyl)-2,3-indolin-3-ylmethylene)]-2,4-dimethyl-1H-pyrrolidine-3-carboxamide], which IC50 [1] is on record?
The IC50 was 4 µM.

With `CCN(CC)CCNC(=O)c1c(C)[nH]c(/C=C2\C(=O)N(COC(=O)C(C)C)c3ccc(F)cc32)c1C` [Compound 12, N-[2-(diethylamino)ethyl]-5-[(5-fluoro-2-oxo-1-(isopropylcarboxymethyl)-2,3-indolin-3-ylmethylene)]-2,4-dimethyl-1H-pyrrolidine-3-carboxamide] as the molecule, how does the IC50 [1] read?
Its IC50 is 9.07 µM.

Which IC50 [1] does the source give for `CCN(CC)CCNC(=O)c1c(C)[nH]c(/C=C2\C(=O)N(COC(=O)c3ccc(OC)cc3)c3ccc(F)cc32)c1C` [Compound 13, N-[2-(diethylamino)ethyl]-5-[(5-fluoro-2-oxo-1-(p-methoxyphenylcarboxymethyl)-2,3-indolin-3-ylmethylene)]-2,4-dimethyl-1H-pyrrolidine-3-carboxamide] here?
The IC50 was 3 µM.

For `CCN(CC)CCNC(=O)c1c(C)[nH]c(/C=C2\C(=O)N(COC(=O)OC(C)(C)C)c3ccc(F)cc32)c1C` [Compound 7, N-[2-(diethylamino)ethyl]-5-[(5-fluoro-2-oxo-1-(t-butoxycarboxymethyl)-2,3-indolin-3-ylmethylene)]-2,4-dimethyl-1H-pyrrolidine-3-carboxamide], which IC50 [1] is on record?
The IC50 was 1.79 µM.

For `CCN(CC)CCNC(=O)c1c(C)[nH]c(/C=C2\C(=O)Nc3ccc(F)cc32)c1C.O=C(O)C[C@H](O)C(=O)O` [Sunitinib, reference compound], which cell survival (786-O cell or A549 cell) is on record?
Its cell survival is “did not affect cell survival”.

And the cell morphology (786-O cell or A549 cell)?
The cell morphology was “remained attached, elongate, and did not exhibit abnormal morphology”.

What about the half-life ([2]; 5.14 mg/kg) of the same molecule?
Its half-life is 74.4 min.

And the Tmax ([2]; iv, 5.14 mg/kg)?
The Tmax was 4.8 min.

And the clearance ([2]; iv, 5.14 mg/kg)?
Its clearance is 4.51 mL/min.

What about the AUC ([2]; iv, 5.14 mg/kg, AUCall) of the same molecule?
Its AUC is 365 ng·h/mL.

And the AUC ([2]; iv, AUCiv)?
The AUC was 365 ng·h/mL.

What about the “tumor killing effects / cytotoxicity” value [3] of the same molecule?
The value was “relatively strong tumor killing effects”.

What about the “IC50 values among several cell lines” value ([3]; 72 hours, CCK8, FIG. 5a-f) of the same molecule?
The value was “comparable”.

And the “inhibition of pSTAT3” value (pSTAT3)?
The value was “strong inhibition”.

What about the bioavailability (in vivo) of the same molecule?
The bioavailability was 15%.

And the AUC (in vivo; po)?
The AUC was 214 ng·h/mL.

And the bioavailability (in vivo; po)?
Its bioavailability is 15.1%.

And the AUC(0-inf) (in vivo; po, 20 mg/kg)?
The AUC(0-inf) was 43.1 ng·h/mL.

And the Cmax (in vivo; po, 20 mg/kg)?
The Cmax was 9.58 ng/mL.

And the Tmax (in vivo; po, 20 mg/kg)?
Its Tmax is 30 min.

And the half-life (in vivo; po, 20 mg/kg)?
Its half-life is 284 min.

What about the blood glucose [4, 6] of the same molecule?
Its blood glucose is “decreased”.

What about the “levels of aspartate transaminase (AST) alanine aminotransferase (ALT) and cholinesterase (CHE)” value [4, 6] of the same molecule?
The value was “significantly elevated”.

And the “levels of lactate dehydrogenase (LDH), creatine kinase (CK) and creatine kinase-MB (CKMB)” value [4, 6]?
Its value is “elevated”.

And the “levels of urate and blood urea nitrogen” value [4, 6]?
The value was “increased”.

And the “effects on the body weights” value ([4]; oral once a day for 14 days, 28 mg/kg and 70 mg/kg)?
Its value is “little effects”.

What about the “average body weight reduce” value [4, 7] of the same molecule?
Its value is 17.6%.

What about the “condition of the mice” value [4, 7] of the same molecule?
The value was “extremely weak”.

And the “influence on body weight” value ([4]; repeated test, oral once a day, 100 mg/kg)?
Its value is “body weights did not increase”.

What about the “average body weight reduce” value [4, 8] of the same molecule?
Its value is 20%.

And the “condition of the mice” value [4, 8]?
The value was “extremely weak”.

For `CCN(CC)CCNC(=O)c1c(C)[nH]c(C=C2C(=O)N(CC(=O)OC(C)(C)C)c3ccc(F)cc32)c1C` [Compound 1, N-[2-(diethylamino)ethyl]-5-[(5-fluoro-2-oxo-1-(t-butylcarboxymethyl)-2,3-indolin-3-ylmethylene)]-2,4-dimethyl-1H-pyrrolidine-3-carboxamide], which “efficacy on tumor size” value (cancer cell xenograft) is on record?
The value was “less efficacy”.

And the cell survival (786-O cell or A549 cell)?
The cell survival was “mass cell death”.

What about the cell morphology (786-O cell or A549 cell) of the same molecule?
The cell morphology was “changed to round and suffered from stress”.

And the AUCiv ([2]; iv)?
Its AUCiv is 478.9.

And the Cl ([2]; iv)?
Its Cl is 267.5 mL/h.

What about the “Cmax, times than that of the control” value ([2]; iv) of the same molecule?
The value was “approx. 5 times”.

And the “RTE analysis: distribution proportions in organs” value ([2]; iv)?
The value was “increased distribution proportions in liver and spleen”.

What about the Tmax ([2]; iv) of the same molecule?
Its Tmax is 4.8 min.

What about the “IC50 values among several cell lines” value ([3]; 72 hours, CCK8, FIG. 5a-f) of the same molecule?
Its value is “comparable”.

And the “tumor killing effects / cytotoxicity” value ([3]; 72 hours, CCK8, FIG. 5a-f)?
Its value is “relatively strong tumor killing effects”.

And the AUCpo (in vivo; po)?
The AUCpo was 946.2.

And the Cl (in vivo; po)?
Its Cl is 3848.9 mL/h.

What about the Tmax (in vivo; po) of the same molecule?
Its Tmax is 30 min.

What about the t1/2 (in vivo; po) of the same molecule?
The t1/2 was 176 min.

What about the “stability in the event of coexisting with biomass” value [5] of the same molecule?
The value was “easy to degrade”.

From US20180022734A1 (Sound Biopharmaceuticals Ltd., priority 2015, published 2018)
